Some results are limits rather than exact numbers.

Usually IC50 stands for the concentration at which inhibition is half-maximal. A lower IC50 goes with higher potency.

One test relates to HeLa. In words: Anticancer activity against human HeLa cells after 48 hrs by MTT assay. Format: functional, cell-based.
Settings: not given
Background: Tetrazolium assays rely on reduction of a dye to a coloured formazan, in cell work by metabolically active cells.
The molecule `CC(=O)O[C@H]1[C@@H](n2nnc3ccccc32)C[C@H]2[C@@H]3CC[C@H]4C[C@@H](N5CCCC5)CC[C@]4(C)[C@H]3CC[C@@]21C` gave an IC50 greater than 50 µM.

The molecule `CCN(CC)[C@H]1CC[C@@]2(C)[C@@H](CC[C@@H]3[C@@H]2CC[C@@]2(C)[C@H]3C[C@H](n3nnc4ccccc43)[C@@H]2OC(C)=O)C1` registered an IC50 greater than 50 µM.

Take `CC(=O)O[C@H]1[C@@H](n2cnc3ccccc32)C[C@H]2[C@@H]3CC[C@H]4C[C@@H](N5CCN(C)CC5)CC[C@]4(C)[C@H]3CC[C@@]21C`: the IC50 is greater than 50 µM.

In turn, `CC(=O)O[C@H]1[C@@H](n2nnc3ccccc32)C[C@H]2[C@@H]3CC[C@H]4C[C@@H](N5CCN(C)CC5)CC[C@]4(C)[C@H]3CC[C@@]21C` returned an IC50 greater than 50 µM.

As to `CC(=O)O[C@H]1[C@@H](n2ccnn2)C[C@H]2[C@@H]3CC[C@H]4C[C@@H](N5CCCCC5)CC[C@]4(C)[C@H]3CC[C@@]21C`, the IC50 is greater than 50 µM.

The molecule `CC(=O)O[C@H]1[C@@H](n2cncn2)C[C@H]2[C@@H]3CC[C@H]4C[C@@H](N5CCOCC5)CC[C@]4(C)[C@H]3CC[C@@]21C` had an IC50 of 22.3 µM.

As for `CC(=O)O[C@H]1[C@@H](n2nnc3ccccc32)C[C@H]2[C@@H]3CC[C@H]4C[C@@H](N5CCOCC5)CC[C@]4(C)[C@H]3CC[C@@]21C`, the IC50 turned out to be 19.8 µM.

In the next test the test system is SW480. In words: Anticancer activity against human SW480 cells after 48 hrs by MTT assay. Format: functional, cell-based. The note with it: SW480, 48 h.
Regarding `CC(=O)O[C@H]1[C@@H](n2nnc3ccccc32)C[C@H]2[C@@H]3CC[C@H]4C[C@@H](N5CCCC5)CC[C@]4(C)[C@H]3CC[C@@]21C`, the IC50 was greater than 50 µM.

For the molecule `CCN(CC)[C@H]1CC[C@@]2(C)[C@@H](CC[C@@H]3[C@@H]2CC[C@@]2(C)[C@H]3C[C@H](n3nnc4ccccc43)[C@@H]2OC(C)=O)C1`, the IC50 was greater than 50 µM.

Molecule `CC(=O)O[C@H]1[C@@H](n2cnc3ccccc32)C[C@H]2[C@@H]3CC[C@H]4C[C@@H](N5CCN(C)CC5)CC[C@]4(C)[C@H]3CC[C@@]21C` showed an IC50 greater than 50 µM.

Consider `CC(=O)O[C@H]1[C@@H](n2nnc3ccccc32)C[C@H]2[C@@H]3CC[C@H]4C[C@@H](N5CCN(C)CC5)CC[C@]4(C)[C@H]3CC[C@@]21C`, for which the IC50 is 18.9 µM.

In turn, `CC(=O)O[C@H]1[C@@H](n2ccnn2)C[C@H]2[C@@H]3CC[C@H]4C[C@@H](N5CCCCC5)CC[C@]4(C)[C@H]3CC[C@@]21C` came in with an IC50 greater than 50 µM.

On to `CC(=O)O[C@H]1[C@@H](n2cncn2)C[C@H]2[C@@H]3CC[C@H]4C[C@@H](N5CCOCC5)CC[C@]4(C)[C@H]3CC[C@@]21C`, for which the IC50 is greater than 50 µM.

Molecule `CC(=O)O[C@H]1[C@@H](n2nnc3ccccc32)C[C@H]2[C@@H]3CC[C@H]4C[C@@H](N5CCOCC5)CC[C@]4(C)[C@H]3CC[C@@]21C` returned an IC50 greater than 50 µM.

Another test deals with A549. Briefly: Anticancer activity against human A549 cells after 48 hrs by MTT assay. It counts as functional, cell-based. To be noted: A549, 48 h.
`CC(=O)O[C@H]1[C@@H](n2nnc3ccccc32)C[C@H]2[C@@H]3CC[C@H]4C[C@@H](N5CCCC5)CC[C@]4(C)[C@H]3CC[C@@]21C` gave an IC50 greater than 50 µM.

The molecule `CCN(CC)[C@H]1CC[C@@]2(C)[C@@H](CC[C@@H]3[C@@H]2CC[C@@]2(C)[C@H]3C[C@H](n3nnc4ccccc43)[C@@H]2OC(C)=O)C1` returned a 50% inhibitory concentration (IC50) greater than 50 µM.

Regarding `CC(=O)O[C@H]1[C@@H](n2cnc3ccccc32)C[C@H]2[C@@H]3CC[C@H]4C[C@@H](N5CCN(C)CC5)CC[C@]4(C)[C@H]3CC[C@@]21C`, half-maximal inhibition (IC50) was put at 22.4 µM.

`CC(=O)O[C@H]1[C@@H](n2nnc3ccccc32)C[C@H]2[C@@H]3CC[C@H]4C[C@@H](N5CCN(C)CC5)CC[C@]4(C)[C@H]3CC[C@@]21C` had an IC50 of 8.99 µM.

`CC(=O)O[C@H]1[C@@H](n2ccnn2)C[C@H]2[C@@H]3CC[C@H]4C[C@@H](N5CCCCC5)CC[C@]4(C)[C@H]3CC[C@@]21C`: the IC50 is greater than 50 µM.

As to `CC(=O)O[C@H]1[C@@H](n2cncn2)C[C@H]2[C@@H]3CC[C@H]4C[C@@H](N5CCOCC5)CC[C@]4(C)[C@H]3CC[C@@]21C`, the IC50 is greater than 50 µM.

With `CC(=O)O[C@H]1[C@@H](n2nnc3ccccc32)C[C@H]2[C@@H]3CC[C@H]4C[C@@H](N5CCOCC5)CC[C@]4(C)[C@H]3CC[C@@]21C`, the IC50 came to 12.2 µM.

The subject of the next test is HepG2. In words: Anticancer activity against human HepG2 cells after 48 hrs by MTT assay. It counts as functional, cell-based. The note with it: HepG2, 48 h.
`CC(=O)O[C@H]1[C@@H](n2nnc3ccccc32)C[C@H]2[C@@H]3CC[C@H]4C[C@@H](N5CCCC5)CC[C@]4(C)[C@H]3CC[C@@]21C` yielded an IC50 greater than 50 µM.

`CCN(CC)[C@H]1CC[C@@]2(C)[C@@H](CC[C@@H]3[C@@H]2CC[C@@]2(C)[C@H]3C[C@H](n3nnc4ccccc43)[C@@H]2OC(C)=O)C1` came in with an IC50 greater than 50 µM.

`CC(=O)O[C@H]1[C@@H](n2cnc3ccccc32)C[C@H]2[C@@H]3CC[C@H]4C[C@@H](N5CCN(C)CC5)CC[C@]4(C)[C@H]3CC[C@@]21C`: the IC50 stood at 11.7 µM.

In turn, `CC(=O)O[C@H]1[C@@H](n2nnc3ccccc32)C[C@H]2[C@@H]3CC[C@H]4C[C@@H](N5CCN(C)CC5)CC[C@]4(C)[C@H]3CC[C@@]21C` yielded an IC50 of 31.7 µM.

As for `CC(=O)O[C@H]1[C@@H](n2ccnn2)C[C@H]2[C@@H]3CC[C@H]4C[C@@H](N5CCCCC5)CC[C@]4(C)[C@H]3CC[C@@]21C`, the IC50 was greater than 50 µM.

Consider `CC(=O)O[C@H]1[C@@H](n2cncn2)C[C@H]2[C@@H]3CC[C@H]4C[C@@H](N5CCOCC5)CC[C@]4(C)[C@H]3CC[C@@]21C`, for which half-maximal inhibition (IC50) required 19.5 µM.

`CC(=O)O[C@H]1[C@@H](n2nnc3ccccc32)C[C@H]2[C@@H]3CC[C@H]4C[C@@H](N5CCOCC5)CC[C@]4(C)[C@H]3CC[C@@]21C` registered an IC50 greater than 50 µM.

The next test relates to SiHa. Briefly: Anticancer activity against human SiHa cells after 48 hrs by MTT assay. Format: functional, cell-based.
Settings: not given
`CC(=O)O[C@H]1[C@@H](n2nnc3ccccc32)C[C@H]2[C@@H]3CC[C@H]4C[C@@H](N5CCCC5)CC[C@]4(C)[C@H]3CC[C@@]21C` had an IC50 greater than 50 µM.

In turn, `CCN(CC)[C@H]1CC[C@@]2(C)[C@@H](CC[C@@H]3[C@@H]2CC[C@@]2(C)[C@H]3C[C@H](n3nnc4ccccc43)[C@@H]2OC(C)=O)C1` yielded an IC50 of 37.2 µM. That is a double-digit micromolar value.

The molecule `CC(=O)O[C@H]1[C@@H](n2cnc3ccccc32)C[C@H]2[C@@H]3CC[C@H]4C[C@@H](N5CCN(C)CC5)CC[C@]4(C)[C@H]3CC[C@@]21C` returned a concentration for half-maximal inhibition (IC50) of 14.9 µM.

Take `CC(=O)O[C@H]1[C@@H](n2nnc3ccccc32)C[C@H]2[C@@H]3CC[C@H]4C[C@@H](N5CCN(C)CC5)CC[C@]4(C)[C@H]3CC[C@@]21C`: 22 µM corresponded to half-maximal inhibition (IC50).

In turn, `CC(=O)O[C@H]1[C@@H](n2ccnn2)C[C@H]2[C@@H]3CC[C@H]4C[C@@H](N5CCCCC5)CC[C@]4(C)[C@H]3CC[C@@]21C` displayed an IC50 greater than 50 µM.

The molecule `CC(=O)O[C@H]1[C@@H](n2cncn2)C[C@H]2[C@@H]3CC[C@H]4C[C@@H](N5CCOCC5)CC[C@]4(C)[C@H]3CC[C@@]21C` showed an IC50 greater than 50 µM.

In turn, `CC(=O)O[C@H]1[C@@H](n2nnc3ccccc32)C[C@H]2[C@@H]3CC[C@H]4C[C@@H](N5CCOCC5)CC[C@]4(C)[C@H]3CC[C@@]21C` had an IC50 greater than 50 µM.

For the origin of these results see ChEMBL document CHEMBL1817616, “Synthesis, characterization and biological evaluation of some 16β-azolyl-3β-amino-5α-androstane derivatives as potential anticancer agents” (Eur J Med Chem, 2011).
